Data: patent US11160764B2, “Drug delivery composition containing silyl polymers” (Medherant Limited, priority 2015, dated 2021)
Values after ≈ are worked out from the molar mass of the structure shown. Read-outs that look alike come from different tables or passages of the source.

Tests used:
[1] = Solubility of drugs in the adhesive compositions / patches
Protocol: Three different grades of composition were employed in solubility experiments: A, B and C (see below). A is the grade which was used for initial studies and further was used as the standard grade for solubility tests.
A sample of composition is pre-heated to 80° C. in a closed cartridge or inert environment to avoid contact with moisture and approximately 10 ml of the composition is added into a beaker and weighed. A desired quantity of drug, preservative and excipients are then added to the mixture. The mixture is mixed until it has been homogenised and is then cast with the help of a heated Meyer bar onto a release liner. Once cast, the layers of composition are cured at 60° C. in a humid environment during 16 hours.
In all experiments benzyl alcohol (BenzOH) was employed as a co-solvent. BenzOH is widely used in both pharmaceutical and cosmetic formulations as a preservative, and therefore its addition is required to improve the shelf life of patches. […] Additionally, it acts as a solvent for drugs improving their dissolution in the polymer matrix compositions. The total amount of BenzOH in all formulations was in a range of 1-3% w/w.
All compounds in the liquid state were added by volume, which was estimated using their specific densities.

[2] = cited from earlier work
[3] = Drug release analysis: permeation from patch across Pion membrane in Franz cell; details: patch of the invention, PBS pH 7.4
Protocol: The membrane and patch are then placed in a Franz cell and then a PBS pH 7.4 buffer solution is added. Samples are taken at one hour interval for 8 hours. The amount of drug released is calculated using a validated HPLC/UV-Vis method depending on the drug in question.

C[C@@H]1CC[C@H]2[C@@H](C)C(=O)O[C@@H]3O[C@@]4(C)CC[C@@H]1[C@]32OO4 [Artemisinin]
Max. mass fraction [1]: 9% | Sol. type [1]: Molecular | Soluble in A [1]: ✓ | Solubility in water [2]: insoluble

C[C@H]1[C@H](OC(=O)CCC(=O)O)O[C@@H]2O[C@@]3(C)CC[C@H]4[C@H](C)CC[C@@H]1[C@@]24OO3 [Artesunate]
Max. mass fraction [1]: 6% | Sol. type [1]: Molecular | Soluble in A [1]: ✓ | Solubility in water [2]: 56 µg/mL (≈ 146 µM)

CC(=O)Oc1ccccc1C(=O)O [Aspirin]
Sol. type [1]: Dispersion

Cn1c(=O)c2c(ncn2C)n(C)c1=O [Caffeine]
Permeated drug amount ([3]; sample 1 hours): 0.19 μg cm^−2 | Permeated drug amount ([3]; sample 2 hours): 2.33 μg cm^−2 | Permeated drug amount ([3]; sample 4 hours): 3.26 μg cm^−2 | Permeated drug amount ([3]; sample 6 hours): 21.89 μg cm^−2

[H]/N=C(\N/C(=N/[H])NCCCCCCNC(=N)NC(=N)Nc1ccc(Cl)cc1)Nc1ccc(Cl)cc1 [Chlorhexidine]
Sol. type [1]: Molecular | Solubility in compositions and patches of the invention ([1]; Medherant patches / compositions of the invention): ~3.5 % w/w | Max. mass fraction ([1]; grade A composition (Table 5)): 3.5% | Soluble in A ([1]; grade A composition (Table 5)): ✓

Cc1ccc2c(Cl)cc(Cl)c(O)c2n1 [Chlorquinaldol]
Max. mass fraction ([1]; grade A composition (Table 5)): 15% | Sol. type ([1]; grade A composition (Table 5)): Molecular | Soluble in A ([1]; grade A composition (Table 5)): ✓ | Solubility in compositions and patches of the invention, in words ([1]; grades of the compositions of the invention): good dissolution | Concentration / mass fraction in patches can be increased up to ([1]; patches of the invention): up to 15 % w/w | Solubility in water [2]: insoluble

O=C(O)Cc1ccccc1Nc1c(Cl)cccc1Cl [Diclofenac]
Permeated drug amount ([3]; sample 1 hours): 0.11 μg cm^−2 | Permeated drug amount ([3]; sample 2 hours): 0.16 μg cm^−2 | Permeated drug amount ([3]; sample 4 hours): 0.39 μg cm^−2 | Permeated drug amount ([3]; sample 6 hours): 0.47 μg cm^−2

CC(C(=O)O)c1ccc(-c2ccccc2)c(F)c1 (stereo not drawn) [Flurbiprofen]
Sol. type [1]: Molecular | Conc., wt % ([1]; grade A composition): >5 wt % | Solubility of analgesic drugs in compositions: A ([1]; grade A composition): ✓ | Max. mass fraction ([1]; grade A composition (Table 5)): 15% | Soluble in A ([1]; grade A composition (Table 5)): ✓ | Conc., wt % ([1]; grade B composition): >5 wt % | Solubility of analgesic drugs in compositions: B ([1]; grade B composition): ✓ | Solubility in water [2]: 25 µg/mL (≈ 102 µM)

CC(C)Cc1ccc(C(C)C(=O)O)cc1 (stereo not drawn) [Ibuprofen]
Permeated drug amount ([3]; sample 1 hours): 15.46 μg cm^−2 | Permeated drug amount ([3]; sample 2 hours): 37.23 μg cm^−2 | Permeated drug amount ([3]; sample 4 hours): 73.85 μg cm^−2 | Permeated drug amount ([3]; sample 6 hours): 99.60 μg cm^−2

COc1ccc2c(c1)c(CC(=O)O)c(C)n2C(=O)c1ccc(Cl)cc1 [Indomethacin]
Conc., wt % [1]: >5 wt % | Max. mass fraction [1]: 10% | Sol. type [1]: Molecular | Solubility of analgesic drugs in compositions: A [1]: ✓ | Solubility of analgesic drugs in compositions: B [1]: ✓ | Soluble in A [1]: ✓ | Solubility in water [2]: 2 µg/mL (≈ 5.59 µM)

CC(C(=O)O)c1cccc(C(=O)c2ccccc2)c1 (stereo not drawn) [Ketoprofen]
Permeated drug amount ([3]; sample 1 hours): 0.90 μg cm^−2 | Permeated drug amount ([3]; sample 2 hours): 4.59 μg cm^−2 | Permeated drug amount ([3]; sample 4 hours): 17.37 μg cm^−2 | Permeated drug amount ([3]; sample 6 hours): 35.67 μg cm^−2

CC(C)[C@@H]1CC[C@@H](C)C[C@H]1O [Levomenthol]
Conc., wt % [1]: >5 wt % | Max. mass fraction [1]: 30%

CN(Cc1cnc2nc(N)nc(N)c2n1)c1ccc(C(=O)N[C@@H](CCC(=O)O)C(=O)O)cc1 [Methotrexate]
Sol. type [1]: Molecular | Max. mass fraction ([1]; grade A composition (Table 5)): 7% | Soluble in A ([1]; grade A composition (Table 5)): ✓ | Solubility in water [2]: insoluble

COC(=O)c1ccccc1O [Methyl salicylate]
Permeated drug amount ([3]; sample 1 hours): 18.25 μg cm^−2 | Permeated drug amount ([3]; sample 2 hours): 24.58 μg cm^−2 | Permeated drug amount ([3]; sample 4 hours): 59.78 μg cm^−2 | Permeated drug amount ([3]; sample 6 hours): 83.03 μg cm^−2 | Sol. type [1]: Molecular | Solubility in adhesive F15 ([1]; adhesive grade F15): ✓ | Solubility in adhesive F16 ([1]; adhesive grade F16): ✓ | Solubility in adhesive F17 ([1]; adhesive grade F17): ✓ | Conc., wt % ([1]; grade A composition): >5 wt % | Solubility of analgesic drugs in compositions: A ([1]; grade A composition): ✓ | Max. mass fraction ([1]; grade A composition (Table 5)): 30% | Soluble in A ([1]; grade A composition (Table 5)): ✓ | Conc., wt % ([1]; grade B composition): >5 wt % | Solubility of analgesic drugs in compositions: B ([1]; grade B composition): ✓ | Drug solubility compared between all three grades ([1]; grades A, B and C): identical | Solubility in the standard grade (A) composition, in words ([1]; standard grade (A)): readily soluble | Solubility in water [2]: 690 µg/mL (≈ 4540 µM)

CN1CCCC1c1cccnc1 (stereo not drawn) [Nicotine]
Permeated drug amount ([3]; sample 1 hours): 2.26 μg cm^−2 | Permeated drug amount ([3]; sample 2 hours): 5.05 μg cm^−2 | Permeated drug amount ([3]; sample 4 hours): 13.76 μg cm^−2 | Permeated drug amount ([3]; sample 6 hours): 18.33 μg cm^−2 | Concentration / mass fraction in patches can be increased up to [1]: up to 30 % w/w | Max. mass fraction [1]: 30% | Sol. type [1]: Molecular | Solubility in compositions and patches of the invention, in words [1]: freely soluble | Soluble in A [1]: ✓

C[C@@H]1[C@H](O)[C@@H](C)/C=C/C=C/CC/C=C/C=C/C=C/C=C/C(O[C@H]2O[C@H](C)[C@@H](O)[C@H](N)[C@@H]2O)CC2O[C@](O)(CC(O)C(O)CCC(O)CC(O)CC(O)CC(=O)O[C@H]1C)CC(O)C2C(=O)O (stereo partly drawn) [Nystatin]
Sol. type ([1]; grade A composition (Table 5)): Molecular | Soluble in A ([1]; grade A composition (Table 5)): ✓

CC1(C)S[C@@H]2[C@H](NC(=O)Cc3ccccc3)C(=O)N2[C@H]1C(=O)O [Penicillin G]
Sol. type ([1]; grade A composition (Table 5)): Dispersion

CN1C(C(=O)Nc2ccccn2)=C(O)c2ccccc2S1(=O)=O [Piroxicam]
Sol. type [1]: Molecular | Conc., wt % ([1]; grade A composition): ~2.5 wt % | Solubility of analgesic drugs in compositions: A ([1]; grade A composition): ✓ | Max. mass fraction ([1]; grade A composition (Table 5)): 2.5% | Soluble in A ([1]; grade A composition (Table 5)): ✓ | Conc., wt % ([1]; grade B composition): ~2.5 wt % | Solubility of analgesic drugs in compositions: B ([1]; grade B composition): ✓ | Limited solubility ([1]; standard grade (A)): ~2.5 % w/w

CCCN[C@H]1CCc2nc(N)sc2C1 [Pramipexole]
Sol. type [1]: Dispersion | Solubility in water [2]: 3900 µg/mL (≈ 18500 µM)

O=C(C1CCCCC1)N1CC(=O)N2CCc3ccccc3C2C1 (stereo not drawn) [Praziquantel]
Max. mass fraction [1]: 10% | Sol. type [1]: Molecular | Soluble in A [1]: ✓

C[C@]12C=CC(=O)C=C1CC[C@@H]1[C@@H]2[C@@H](O)C[C@@]2(C)[C@H]1CC[C@]2(O)C(=O)CO [Prednisolone]
Sol. type ([1]; grade A composition (Table 5)): Dispersion

CCCNC(C)C(=O)Nc1ccccc1C (stereo not drawn) [Prilocaine]
Distribution of the drug in the patch [1]: uniformly distributed in the patch in a form of micro particles | Sol. type [1]: Dispersion | Solubility in the standard grade (A) composition, in words [1]: poor solubility | Solubility in water [2]: 540 µg/mL (≈ 2450 µM)

CC(=O)[C@H]1CC[C@H]2[C@@H]3CCC4=CC(=O)CC[C@]4(C)[C@H]3CC[C@]12C [Progesterone]
Max. mass fraction [1]: 15% | Sol. type [1]: Molecular | Soluble in A [1]: ✓ | Solubility in water [2]: 9 µg/mL (≈ 28.6 µM)

CC(C)(C)NCC(O)c1ccc(O)c(CO)c1 (stereo not drawn) [Salbutamol]
Max. mass fraction [1]: 5% | Sol. type [1]: Molecular | Soluble in A [1]: ✓

O=C(O)c1ccccc1O [Salicylic acid]
Permeated drug amount ([3]; sample 1 hours): 3.38 μg cm^−2 | Permeated drug amount ([3]; sample 2 hours): 11.92 μg cm^−2 | Permeated drug amount ([3]; sample 4 hours): 31.75 μg cm^−2 | Permeated drug amount ([3]; sample 6 hours): 54.71 μg cm^−2 | Conc., wt % [1]: >5 wt % | Max. mass fraction [1]: 30% | Sol. type [1]: Molecular | Solubility in the standard grade (A) composition, in words [1]: readily soluble | Solubility of analgesic drugs in compositions: A [1]: ✓ | Solubility of analgesic drugs in compositions: B [1]: ✓ | Soluble in A [1]: ✓

O=C(Oc1ccccc1C(=O)O)c1ccccc1O [Salsalate]
Conc., wt % [1]: >5 wt % | Max. mass fraction [1]: 10% | Sol. type [1]: Molecular | Solubility of analgesic drugs in compositions: A [1]: ✓ | Solubility of analgesic drugs in compositions: B [1]: ✓ | Soluble in A [1]: ✓ | Solubility in water [2]: 246 µg/mL (≈ 953 µM)

C[C@]12CC[C@H]3[C@@H](CCC4=CC(=O)CC[C@@]43C)[C@@H]1CC[C@@H]2O [Testosterone]
Max. mass fraction ([1]; grade A composition (Table 5)): 5% | Sol. type ([1]; grade A composition (Table 5)): Molecular | Soluble in A ([1]; grade A composition (Table 5)): ✓

COc1cc(Cc2cnc(N)nc2N)cc(OC)c1OC [Trimethoprim]
Sol. type [1]: Dispersion

Ivermectin
Max. mass fraction ([1]; grade A composition (Table 5)): 5% | Sol. type ([1]; grade A composition (Table 5)): Molecular | Soluble in A ([1]; grade A composition (Table 5)): ✓
